Source: patent US7671026B2, “Cytomodulating peptides for treating interstitial cystitis” (Sangstat Medical Corporation, priority 2002, dated 2010)

Legend:
[1] = system: CD3 positive cells; test: Chronic interstitial cystitis model, CD3/CD45 immunostaining of bladder sections; assay type: in vivo, mice; conditions: animals exposed to LPS, then RDP58; 24 hrs and 72 hrs after RDP58 treatment
Description: Chronic IC model was induced in mice by transurethrally catheterizing mice and instilling with 15 ug of E.coli. lipopolysaccharide (LPS) in 150 ul. Controls were instilled with 150 ul of saline. Animals were treated three times per week for two weeks. To determine the effect of RDP58, animals were instilled with the peptide following 14 days of LPS instillation. Histological analyses of the bladders were carried out 24 or 72 hrs post treatment. Cytokine levels were assayed by removing the bladder 24 hrs following RDP58 treatment, culturing the tissue ex vivo, and assaying for cytokines, as described above. Bladder permeability used the FITC-dextran assay.
Bladder from the various animal groups were removed after the treatments and then sectioned. Morphology was examined by staining with haematoxylin-eosin. Sections were examined for the presence of T-cell differentiation markers CD3 or CD45 by immunostaining with anti-CD45 and anti-CD3 antibodies.

[2] = system: TNF-α; test: Ex vivo LPS-stimulated bladder tissue culture, TNF-α ELISA; assay type: cell-based, mice; conditions: first study; BALB/c bladder tissue, 1 ug LPS + RDP58 50 uM final, 18 hrs, each pool
Description: The ability of RDP58 peptide bc-1nL in inhibiting cytokine production in bladder cells was examined. In a first study, BALB/c mice were euthanized with CO2 and the bladders harvested after voiding it of urine. Bladders were gently washed with RMPI 1640 media containing penicillin and streptomycin and minced into 1-2 mm pieces. Equal amounts of tissue were incubated overnight at 37° C. in 0.5 ml of RPMI culture medium in the presence of 1 ug LPS (E. coli. 055:B5; Sigma), 50 ul of RDP58 peptide (1 mg/ml) (50 uM final concentration), 1 ug LPS+50 ul of RDP58 peptde, or media alone. The culture supernatants were collected after 18 hrs, clarified by centrifugation, and assayed by ELISA for cytokines TNF-αand IFN-γ.
In a second study, bladders from 12 normal mice were harvested, pooled into four sets of three bladders, and the tissues minced into 1-2 mm pieces. Equal amounts of tissue were incubated overnight in culture media containing LPS, RDP58 peptide, LPS+RDP58 peptide, or media, as described above. After clarifying the culture medium by centrifugation, supernatants were assayed for presence of TNF-α by ELISA.

## Arg-nL-nL-nL-Arg-nL-nL-nL-Gly-Tyr [RDP58]
[1]
  CD3 positive cells in bladder tissue sections: reduction of CD3 positive cells
[2]
  inhibition of TNF-α production: about 30%
